These are literature values, as cited in patent US20260207488A1, “Liquid pharmaceutical composition containing flecainide and process for the preparation thereof” (Colonis Pharma Ltd, priority 2022, published 2026).

For series [1] the following is noted: water.

As to `CC(=O)O.O=C(NCC1CCCCN1)c1cc(OCC(F)(F)F)ccc1OCC(F)(F)F` (centres unmarked) [Flecainide Acetate, N-(2-piperidinylmethyl)-2,5-bis(2,2,2-trifluoroethoxy)benzamide monoacetate], the “solubility (BCS)” value is “high solubility”. In series [1], the aqueous solubility result is “about 48.0 mg/mL”.
